Measurements as given in patent US20090143288A1, “Peptide-complement conjugates” (Roche Palo Alto LLC, priority 2007, published 2009).

Target: HR1 region of HIV-1 gp41 (immobilized biotinylated HR1 peptide Biotin-T-2324) (Human immunodeficiency virus type 1 group M subtype B, UniProt P04582, G556A)
Assay: BIAcore surface plasmon resonance analysis of the binding to the HR1 region
Conditions: SPR, BIAcore 3000, 25° C., HBS-P buffer, 1:1 Langmuir binding model

## CC[C@H](C)[C@H](NC(=O)[C@H](CCC(N)=O)NC(=O)[C@H](C)NC(=O)[C@H](CCC(N)=O)NC(=O)[C@H](CCC(=O)O)NC(=O)[C@H](CC(C)C)NC(=O)[C@H](CC(C)C)NC(=O)[C@H](C)NC(=O)[C@@H](NC(=O)[C@@H](NC(=O)[C@H](CCCCN)NC(=O)[C@H](CCC(N)=O)NC(=O)[C@H](CCC(=O)O)NC(=O)[C@H](Cc1c[nH]c2ccccc12)NC(=O)[C@H](CCC(=O)O)NC(=O)[C@H](CCC(N)=O)NC(=O)[C@H](Cc1c[nH]c2ccccc12)NC(C)=O)[C@@H](C)CC)[C@@H](C)O)C(=O)N[C@@H](CCC(N)=O)C(=O)N[C@@H](CCC(N)=O)C(=O)N[C@@H](CCC(=O)O)C(=O)N[C@@H](CCCCN)C(=O)N[C@@H](CC(N)=O)C(=O)N[C@@H](CCC(=O)O)C(=O)N[C@@H](Cc1ccc(O)cc1)C(=O)N[C@@H](CCC(=O)O)C(=O)N[C@@H](CC(C)C)C(=O)N[C@@H](CCC(N)=O)C(=O)N[C@@H](CCCCN)C(=O)N[C@@H](CC(C)C)C(=O)N[C@@H](CC(=O)O)C(=O)N[C@@H](CCCCN)C(=O)N[C@@H](Cc1c[nH]c2ccccc12)C(=O)N[C@@H](C)C(=O)N[C@@H](CO)C(=O)N[C@@H](CC(C)C)C(=O)N[C@@H](Cc1c[nH]c2ccccc12)C(=O)N[C@@H](CCC(=O)O)C(=O)N[C@@H](Cc1c[nH]c2ccccc12)C(=O)N[C@@H](Cc1ccccc1)C(N)=O [Rob T-1249, WQEWEQKITALLEQAQIQQEKNEYELQKLDKWASLWEWF]
  ka (association rate constant): 6.4 * 10^5 1/ms
  kd (dissociation rate constant): 0.000845 s⁻¹
